Measured values reported in PubChem BioAssay AID256 (DTP/NCI, 2004).
“And” between values parts separate entries of the source, which are not always exact repeats. Equal values may be shown once. Toxic doses and inconclusive results are not listed. The calls were made as follows: active = survival T/C of 150% or more; inactive = T/C below 125% in these data.

Test system: CD2F1 mice, L1210 leukemia ip, survival T/C
Assay: NCI In Vivo Anticancer Drug Screen. Data for tumor model L1210 Leukemia (intraperitoneal) in CD2F1 (CDF1) mice
Details: higher = longer survival
Outline: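 Each value reflects a quotient of treated over vehicle control outcomes in mice with a transplanted tumor.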

[1] = endpoint: mean survival time, dose: 100.0 mg/kg/injection, schedule: Q01DX009 (ip), vehicle: saline with Tween-80
[2] = endpoint: mean survival time, dose: 100.0 mg/kg/injection, schedule: Q04DX003 (ip), vehicle: saline with Tween-80
[3] = endpoint: mean survival time, dose: 200.0 mg/kg/injection, schedule: Q01DX009 (ip), vehicle: saline with Tween-80
[4] = endpoint: mean survival time, dose: 200.0 mg/kg/injection, schedule: Q04DX003 (ip), vehicle: saline with Tween-80
[5] = endpoint: mean survival time, dose: 400.0 mg/kg/injection, schedule: Q01DX009 (ip), vehicle: saline with Tween-80
[6] = endpoint: mean survival time, dose: 400.0 mg/kg/injection, schedule: Q04DX003 (ip), vehicle: saline with Tween-80

Measured: T/C

O=C(Nc1ccccc1F)c1cccc(Cl)c1
inactive: endpoint: mean survival time, dose: 100.0 mg/kg/injection, schedule: Q01DX009 (ip), vehicle: saline + alcohol 94 % of control | endpoint: mean survival time, dose: 100.0 mg/kg/injection, schedule: Q04DX003 (ip), vehicle: saline + alcohol 95 % of control | endpoint: mean survival time, dose: 200.0 mg/kg/injection, schedule: Q01DX009 (ip), vehicle: saline + alcohol 94 % of control | endpoint: mean survival time, dose: 200.0 mg/kg/injection, schedule: Q04DX003 (ip), vehicle: saline + alcohol 95 % of control | endpoint: mean survival time, dose: 400.0 mg/kg/injection, schedule: Q01DX009 (ip), vehicle: saline + alcohol 94 % of control | endpoint: mean survival time, dose: 400.0 mg/kg/injection, schedule: Q04DX003 (ip), vehicle: saline + alcohol 94 % of control

O=S(=O)(c1ccc(Br)cc1)c1ccc(Br)cc1
inactive: endpoint: mean survival time, dose: 100.0 mg/kg/injection, schedule: Q01DX001 (ip), vehicle: saline with Tween-80 112 % of control | endpoint: mean survival time, dose: 200.0 mg/kg/injection, schedule: Q01DX001 (ip), vehicle: saline with Tween-80 102 % of control | endpoint: mean survival time, dose: 400.0 mg/kg/injection, schedule: Q01DX001 (ip), vehicle: saline with Tween-80 97 % of control

O
inactive: endpoint: mean survival time, dose: 75.0 mg/kg/injection, schedule: Q01DX001 (ip), vehicle: saline 96 % of control | endpoint: mean survival time, dose: 100.0 mg/kg/injection, schedule: Q01DX009 (ip), vehicle: saline 88 % of control | endpoint: mean survival time, dose: 200.0 mg/kg/injection, schedule: Q01DX009 (ip), vehicle: saline 100 % of control | endpoint: mean survival time, dose: 400.0 mg/kg/injection, schedule: Q01DX009 (ip), vehicle: saline 96 % of control

O=C(c1ccccc1)c1ccc(-c2ccccc2)c(=O)o1
inactive: [1] 95 % of control | [2] 100 % of control | [3] 95 % of control | [4] 98 % of control | [5] 92 % of control | [6] 102 % of control

COc1ccccc1N=Nc1c(O)n(-c2ccccc2OC)c(=S)n(-c2ccc(Br)cc2)c1=O
inactive: endpoint: mean survival time, dose: 25.0 mg/kg/injection, schedule: Q04DX002 (ip), vehicle: saline with Tween-80 100 % of control | endpoint: mean survival time, dose: 50.0 mg/kg/injection, schedule: Q04DX002 (ip), vehicle: saline with Tween-80 100 % of control | endpoint: mean survival time, dose: 100.0 mg/kg/injection, schedule: Q04DX002 (ip), vehicle: saline with Tween-80 95 % of control

CC/C=N/NC(N)=S
inactive: endpoint: mean survival time, dose: 5.0 mg/kg/injection, schedule: Q01DX001 (ip), vehicle: saline 98 % of control | endpoint: mean survival time, dose: 10.0 mg/kg/injection, schedule: Q01DX001 (ip), vehicle: saline 102 % of control | endpoint: mean survival time, dose: 20.0 mg/kg/injection, schedule: Q01DX001 (ip), vehicle: saline 106 % of control

CC(=O)OCC1OC(N(C(C)=O)c2nc(Cl)c3cc[nH]c3n2)C(OC(C)=O)C1OC(C)=O (stereo not drawn)
inactive: endpoint: mean survival time, dose: 12.5 mg/kg/injection, schedule: Q01DX005 (ip), vehicle: water 104 % of control | endpoint: mean survival time, dose: 25.0 mg/kg/injection, schedule: Q01DX005 (ip), vehicle: water 101 % of control | endpoint: mean survival time, dose: 50.0 mg/kg/injection, schedule: Q01DX005 (ip), vehicle: water 98 % of control | endpoint: mean survival time, dose: 100.0 mg/kg/injection, schedule: Q01DX005 (ip), vehicle: water 102 % of control | endpoint: mean survival time, dose: 200.0 mg/kg/injection, schedule: Q01DX005 (ip), vehicle: water 106 % of control

CC(C)C/C(=N\Nc1ccccc1)c1ccccn1
inactive: endpoint: mean survival time, dose: 100.0 mg/kg/injection, schedule: Q01DX001 (ip), vehicle: saline 101 % of control | endpoint: mean survival time, dose: 200.0 mg/kg/injection, schedule: Q01DX001 (ip), vehicle: saline 100 % of control | endpoint: mean survival time, dose: 400.0 mg/kg/injection, schedule: Q01DX001 (ip), vehicle: saline 97 % of control

Cc1nc2cc3ccccc3cc2n1C1OC(CO)C(O)C1O (stereo not drawn)
inactive: endpoint: median survival time, dose: 26.5 mg/kg/injection, schedule: Q01DX005 (ip), vehicle: saline with Tween-80 92 % of control | endpoint: median survival time, dose: 53.0 mg/kg/injection, schedule: Q01DX005 (ip), vehicle: saline with Tween-80 103 % of control | endpoint: median survival time, dose: 106.0 mg/kg/injection, schedule: Q01DX005 (ip), vehicle: saline with Tween-80 93 % of control | endpoint: median survival time, dose: 212.0 mg/kg/injection, schedule: Q01DX005 (ip), vehicle: saline with Tween-80 88 % of control

COc1cccc(/C=N/NC(=O)c2ccccc2N2CCCC2)c1O
inactive: endpoint: mean survival time, dose: 12.5 mg/kg/injection, schedule: Q01DX009 (ip), vehicle: olive oil, sesame oil, peanut oil 104 % of control | endpoint: mean survival time, dose: 25.0 mg/kg/injection, schedule: Q01DX009 (ip), vehicle: olive oil, sesame oil, peanut oil 96 % of control | endpoint: mean survival time, dose: 50.0 mg/kg/injection, schedule: Q01DX009 (ip), vehicle: olive oil, sesame oil, peanut oil 102 % of control | endpoint: mean survival time, dose: 100.0 mg/kg/injection, schedule: Q01DX009 (ip), vehicle: olive oil, sesame oil, peanut oil 94 % of control | endpoint: mean survival time, dose: 200.0 mg/kg/injection, schedule: Q01DX009 (ip), vehicle: olive oil, sesame oil, peanut oil 96 % of control

CCOC(C[N+](C)(C)C)OCC
inactive: endpoint: mean survival time, dose: 50.0 mg/kg/injection, schedule: Q01DX009 (ip), vehicle: saline with Tween-80 100 % of control | [1] 94 % of control

O=C(c1ccccc1Cl)n1c2c(c3ccccc31)CCCC2
inactive: [1] 110 % of control | [2] 101 % of control | [3] 103 % of control | [4] 95 % of control | [5] 96 % of control | [6] 97 % of control

COc1ccc(C(O)C#N)cc1O (stereo not drawn)
inactive: endpoint: mean survival time, dose: 3.13 mg/kg/injection, schedule: Q01DX009 (ip), vehicle: saline 101 % of control | endpoint: mean survival time, dose: 6.25 mg/kg/injection, schedule: Q01DX009 (ip), vehicle: saline 103 % of control | endpoint: mean survival time, dose: 6.25 mg/kg/injection, schedule: Q04DX003 (ip), vehicle: saline 101 % of control | endpoint: mean survival time, dose: 12.5 mg/kg/injection, schedule: Q01DX009 (ip), vehicle: saline 101 % of control | endpoint: mean survival time, dose: 12.5 mg/kg/injection, schedule: Q04DX003 (ip), vehicle: saline 106 % of control

CCOC(=O)C(=O)C[n+]1cc2ccccc2cc1/C=N/O
inactive: endpoint: mean survival time, dose: 100.0 mg/kg/injection, schedule: Q04DX003 (ip), vehicle: saline 105 % of control | endpoint: mean survival time, dose: 200.0 mg/kg/injection, schedule: Q04DX003 (ip), vehicle: saline 105 % of control | endpoint: mean survival time, dose: 400.0 mg/kg/injection, schedule: Q04DX003 (ip), vehicle: saline 94 % of control

O=C(O)c1cc(C(=O)O)c(C(=O)O)cc1C(=O)O.[NH2-].[NH2-].[NH2-].[NH2-].[Pt+2].[Pt+2]
inactive: endpoint: mean survival time, dose: 0.2 mg/kg/injection, schedule: Q04DX003 (ip), vehicle: water 124 % of control and 106 % of control | endpoint: mean survival time, dose: 0.39 mg/kg/injection, schedule: Q04DX003 (ip), vehicle: water 115 % of control and 119 % of control | endpoint: mean survival time, dose: 2.0 mg/kg/injection, schedule: Q04DX003 (ip), vehicle: water 98 % of control | endpoint: mean survival time, dose: 4.0 mg/kg/injection, schedule: Q04DX003 (ip), vehicle: water 97 % of control | endpoint: mean survival time, dose: 8.0 mg/kg/injection, schedule: Q04DX003 (ip), vehicle: water 106 % of control | endpoint: mean survival time, dose: 16.0 mg/kg/injection, schedule: Q04DX003 (ip), vehicle: water 110 % of control | endpoint: median survival time, dose: 0.12 mg/kg/injection, schedule: Q01DX009 (ip), vehicle: water 97 % of control | endpoint: median survival time, dose: 0.25 mg/kg/injection, schedule: Q01DX009 (ip), vehicle: water 97 % of control | endpoint: median survival time, dose: 0.5 mg/kg/injection, schedule: Q01DX009 (ip), vehicle: water 97 % of control | endpoint: median survival time, dose: 1.0 mg/kg/injection, schedule: Q01DX009 (ip), vehicle: water 92 % of control and 100 % of control and 112 % of control | endpoint: median survival time, dose: 2.0 mg/kg/injection, schedule: Q01DX009 (ip), vehicle: water 100 % of control and 101 % of control and 109 % of control | endpoint: median survival time, dose: 4.0 mg/kg/injection, schedule: Q01DX009 (ip), vehicle: water 124 % of control and 105 % of control | endpoint: median survival time, dose: 8.0 mg/kg/injection, schedule: Q01DX009 (ip), vehicle: water 124 % of control and 111 % of control (2×) | endpoint: median survival time, dose: 16.0 mg/kg/injection, schedule: Q01DX009 (ip), vehicle: water 96 % of control | endpoint: median survival time, dose: 32.0 mg/kg/injection, schedule: Q01DX009 (ip), vehicle: water 90 % of control
